What was measured:
[1] = system: P388 lymphoplastic leukemia; experiment: Combined therapy DDP+GMDP-A in the P388 lymphoplastic leukemia model; format: in vivo, mice BDF1; details: for Tumor volume / tumor growth inhibition (TGI) / Average life time / ILT (increase of the animal life time) / Metastasis MF (tumor metastasis frequency) / Metastasis MI (metastasis inhibition rate): DDP, if given, single 4 mg/kg i.v.
Experimental: They were transplanted on the right-side surface of the animal body.
The animals with tumors were treated in test groups at the early (24 hours after tumor inoculation) and late (5 days after tumor inoculation) terms of the tumor growth using a single cytostatic injection intravenously in a dose equal to ½ or ¼ of therapeutic one and various schedules for GMDP-A injection: • Primary subcutaneous injection of GMDP-A modifier in a single dose 3.75 mg/kg; • Repeated protracted subcutaneous administration of GMDP-A modifier according to different schedules: 4-fold, 9-fold and 20-fold, once per day, in a single dose of 3.75 mg/kg (course dose is 18.75 mg/kg, 37.5 mg/kg and 78.75 mg/kg, correspondingly). Dosage frequency depends upon the model (histological form of transplanted tumor).
To identify efficiency of the claimed combined therapy, independent medication was carried out as a control after tumor inoculation using one component of binary therapy-cytostatic drug or a modifier. Cytostatic was injected intravenously in amount of ½ or ¼ of therapeutic dose once after 24 hours or 5 days after tumor inoculation; GMDP-A modifier was administered subcutaneously in a single dose of 3.75 mg/kg 5-fold from the 1st day to the 5th day or from the 5th day to the 9th day, or 10-fold from the 1st day to the 10th day or from the 5th day to the 14th day, or 21-fold from the 1st day to the 21st day after tumor inoculation.
Anti-tumor efficiency of the claimed combined therapy and comparative monotherapy using only a cytostatic or only GMDP-A modifier was assessed by the criteria commonly used in experimental oncology: tumor volume (TV), tumor growth inhibition (TGI), increase of the animal life time (ILT), tumor metastasis frequency (MF), metastasis inhibition rate (MI).
Efficiency of the combined therapy—chemotherapy with cisplatin cytostatic (DDP) and bioherapy with GMDP-A was assessed on P388 lymphoplastic leukemia model inoculated to mice BDF1, females, subcutaneously on the right-side body surface.
GMDP-A was administered to mice subcutaneously as a single dose of 3.75 mg/kg every day with different schedules: • Five-fold (total dose is 18.75 mg/kg) on the 1st day to the 5th day or on the 5th day to the 9th day after tumor inoculation; • Ten-fold (total dose is 37.5 mg/kg) on the 1st day to the 10th day or on the 5th day to the 14th day after tumor inoculation; • Twenty-one-fold (total dose is 78.75 mg/kg) on the 1st day to the 21st st day after tumor inoculation.
DDP (Cisplatin, Cisplatin Teva trade mark, manufacturer is Teva Pharmaceutical Industries Ltd., Israel, fabricated at Pharmachemie B.V., the Netherlands) was administered intravenously as a single dose ma 4 mg/kg (½ of therapeutic dose).

[2] = system: B16 melanoma; experiment: Binary therapy DDP+GMDP-A in the B16 melanoma model; format: in vivo, BDF1 mice; details: for Tumor volume / tumor growth inhibition (TGI) / Average life time / ILT (increase of the animal life time) / Metastasis MF (tumor metastasis frequency) / Metastasis MI (metastasis inhibition rate): DDP, if given, single 4 mg/kg i.v.
[3] = at assumed therapeutic dose and at its five-fold excess; cited from earlier work
[4] = day 7, early start (1st day), 5-fold GMDP-A 3.75 mg/kg s.c.
[5] = day 7, early start (1st day), 10-fold GMDP-A 3.75 mg/kg s.c.
[6] = day 7, early start (1st day), 21-fold GMDP-A 3.75 mg/kg s.c.
[7] = day 7, late start (5th day), 5-fold GMDP-A 3.75 mg/kg s.c.
[8] = day 7, late start (5th day), 10-fold GMDP-A 3.75 mg/kg s.c.
[9] = day 9, early start (1st day), 5-fold GMDP-A 3.75 mg/kg s.c.
[10] = day 9, early start (1st day), 10-fold GMDP-A 3.75 mg/kg s.c.
[11] = day 9, early start (1st day), 21-fold GMDP-A 3.75 mg/kg s.c.
[12] = day 9, late start (5th day), 5-fold GMDP-A 3.75 mg/kg s.c.
[13] = day 9, late start (5th day), 10-fold GMDP-A 3.75 mg/kg s.c.
[14] = day 12, early start (1st day), 5-fold GMDP-A 3.75 mg/kg s.c.
[15] = day 12, early start (1st day), 10-fold GMDP-A 3.75 mg/kg s.c.
[16] = day 12, early start (1st day), 21-fold GMDP-A 3.75 mg/kg s.c.
[17] = day 12, late start (5th day), 5-fold GMDP-A 3.75 mg/kg s.c.
[18] = day 12, late start (5th day), 10-fold GMDP-A 3.75 mg/kg s.c.
[19] = day 14, early start (1st day), 5-fold GMDP-A 3.75 mg/kg s.c.
[20] = day 14, early start (1st day), 10-fold GMDP-A 3.75 mg/kg s.c.
[21] = day 14, early start (1st day), 21-fold GMDP-A 3.75 mg/kg s.c.
[22] = day 14, late start (5th day), 5-fold GMDP-A 3.75 mg/kg s.c.
[23] = day 14, late start (5th day), 10-fold GMDP-A 3.75 mg/kg s.c.
[24] = day 19, early start (1st day), 5-fold GMDP-A 3.75 mg/kg s.c.
[25] = day 19, early start (1st day), 10-fold GMDP-A 3.75 mg/kg s.c.
[26] = day 19, early start (1st day), 21-fold GMDP-A 3.75 mg/kg s.c.
[27] = day 19, late start (5th day), 5-fold GMDP-A 3.75 mg/kg s.c.
[28] = day 19, late start (5th day), 10-fold GMDP-A 3.75 mg/kg s.c.
[29] = early start (1st day), 5-fold GMDP-A 3.75 mg/kg s.c.
[30] = early start (1st day), 10-fold GMDP-A 3.75 mg/kg s.c.
[31] = early start (1st day), 21-fold GMDP-A 3.75 mg/kg s.c.
[32] = late start (5th day), 5-fold GMDP-A 3.75 mg/kg s.c.
[33] = late start (5th day), 10-fold GMDP-A 3.75 mg/kg s.c.
[34] = day 16, early start (1st day), 5-fold GMDP-A 3.75 mg/kg s.c.
[35] = day 16, early start (1st day), 10-fold GMDP-A 3.75 mg/kg s.c.
[36] = day 16, late start (5th day), 5-fold GMDP-A 3.75 mg/kg s.c.
[37] = day 16, late start (5th day), 10-fold GMDP-A 3.75 mg/kg s.c.

## CC(=O)NC1C(OC2C(CO)OC(O)C(NC(C)=O)C2OC(C)C(=O)NC(C)C(=O)NC(CCC(=O)O)C(=O)O)OC(CO)C(O)C1O [GMDP-A, N-acetyl-D-glucosaminyl-β-(1-4)-N-acetylmuramyl-L-alanyl-D-glutamic acid]
[1]; [4]
  Tumor volume: 45 ± 2 mm^3
  tumor growth inhibition (TGI): 51%
[1]; [5]
  Tumor volume: 66.6 ± 6 mm^3
  tumor growth inhibition (TGI): 37%
[1]; [6]
  Tumor volume: 73.5 ± 4.8 mm^3
  tumor growth inhibition (TGI): 30%
[1]; [7]
  Tumor volume: 63 ± 12 mm^3
  tumor growth inhibition (TGI): 31%
[1]; [8]
  Tumor volume: 86.5 ± 5.9 mm^3
  tumor growth inhibition (TGI): 18%
[1]; [9]
  Tumor volume: 124 ± 7 mm^3
  tumor growth inhibition (TGI): 36%
[1]; [10]
  Tumor volume: 108.6 ± 14.2 mm^3
  tumor growth inhibition (TGI): 24%
[1]; [11]
  Tumor volume: 120.6 ± 12.5 mm^3
  tumor growth inhibition (TGI): 16%
[1]; [12]
  Tumor volume: 107 ± 18 mm^3
  tumor growth inhibition (TGI): 45%
[1]; [13]
  Tumor volume: 105 ± 9 mm^3
  tumor growth inhibition (TGI): 26%
[1]; [14]
  Tumor volume: 204 ± 54 mm^3
  tumor growth inhibition (TGI): 6%
[1]; [15]
  Tumor volume: 187.3 ± 27.4 mm^3
  tumor growth inhibition (TGI): 4%
[1]; [16]
  Tumor volume: 159.0 ± 14.7 mm^3
  tumor growth inhibition (TGI): 18%
[1]; [17]
  Tumor volume: 172 ± 51 mm^3
  tumor growth inhibition (TGI): 21%
[1]; [18]
  Tumor volume: 163.8 ± 13.5 mm^3
  tumor growth inhibition (TGI): 16%
[1]; [19]
  Tumor volume: 257 ± 24 mm^3
  tumor growth inhibition (TGI): 16%
[1]; [20]
  Tumor volume: 245.3 ± 30.5 mm^3
  tumor growth inhibition (TGI): 9%
[1]; [21]
  Tumor volume: 200.7 ± 17.3 mm^3
  tumor growth inhibition (TGI): 25%
[1]; [22]
  Tumor volume: 257 ± 53 mm^3
  tumor growth inhibition (TGI): 16%
[1]; [23]
  Tumor volume: 242.4 ± 18.3 mm^3
  tumor growth inhibition (TGI): 10%
[1]; [24]
  Tumor volume: 318 ± 42 mm^3
  tumor growth inhibition (TGI): 6%
[1]; [25]
  Tumor volume: 566.9 ± 50.2 mm^3
  tumor growth inhibition (TGI): 11%
[1]; [26]
  Tumor volume: 432.1 ± 67.9 mm^3
  tumor growth inhibition (TGI): 32%
[1]; [27]
  Tumor volume: 302 ± 103 mm^3
  tumor growth inhibition (TGI): 11%
[1]; [28]
  Tumor volume: 510.1 ± 46.6 mm^3
  tumor growth inhibition (TGI): 20%
[1]; [29]
  Average life time: 22 ± 1.2 days
  ILT (increase of the animal life time): 21%
[1]; [30]
  Average life time: 24 ± 0.5 days
  ILT (increase of the animal life time): 0%
  Metastasis MF (tumor metastasis frequency): 100%
  Metastasis MI (metastasis inhibition rate): 10%
[1]; [31]
  Average life time: 23 ± 1.6 days
  ILT (increase of the animal life time): −4%
  Metastasis MF (tumor metastasis frequency): 100%
  Metastasis MI (metastasis inhibition rate): 22%
[1]; example 1
  efficiency for individual use (without chemotherapy): did not reach a biologically significant level
[1]; [32]
  Average life time: 20 ± 0.9 days
  ILT (increase of the animal life time): 7%
[1]; [33]
  Average life time: 24 ± 0.8 days
  ILT (increase of the animal life time): 0%
  Metastasis MF (tumor metastasis frequency): 100%
  Metastasis MI (metastasis inhibition rate): 8%
[2]; [4]
  Tumor volume: 11 ± 6 mm^3
  tumor growth inhibition (TGI): 71%
[2]; [5]
  Tumor volume: 15 ± 6 mm^3
  tumor growth inhibition (TGI): 62%
[2]; [9]
  Tumor volume: 58 ± 11 mm^3
  tumor growth inhibition (TGI): 51%
[2]; [10]
  Tumor volume: 56 ± 9 mm^3
  tumor growth inhibition (TGI): 52%
[2]; [12]
  Tumor volume: 61 ± 9 mm^3
  tumor growth inhibition (TGI): 48%
[2]; [13]
  Tumor volume: 66 ± 14 mm^3
  tumor growth inhibition (TGI): 44%
[2]; [14]
  Tumor volume: 177 ± 33 mm^3
  tumor growth inhibition (TGI): 33%
[2]; [15]
  Tumor volume: 162 ± 21 mm^3
  tumor growth inhibition (TGI): 38%
[2]; [17]
  Tumor volume: 173 ± 17 mm^3
  tumor growth inhibition (TGI): 34%
[2]; [18]
  Tumor volume: 164 ± 29 mm^3
  tumor growth inhibition (TGI): 37%
[2]; [19]
  Tumor volume: 347 ± 47 mm^3
  tumor growth inhibition (TGI): 8%
[2]; [20]
  Tumor volume: 298 ± 44 mm^3
  tumor growth inhibition (TGI): 21%
[2]; [22]
  Tumor volume: 329 ± 41 mm^3
  tumor growth inhibition (TGI): 13%
[2]; [23]
  Tumor volume: 269 ± 62 mm^3
  tumor growth inhibition (TGI): 29%
[2]; [34]
  Tumor volume: 522 ± 82 mm^3
  tumor growth inhibition (TGI): 6%
[2]; [35]
  Tumor volume: 446 ± 53 mm^3
  tumor growth inhibition (TGI): 20%
[2]; [36]
  Tumor volume: 391 ± 67 mm^3
  tumor growth inhibition (TGI): 30%
[2]; [37]
  Tumor volume: 408 ± 79 mm^3
  tumor growth inhibition (TGI): 27%
[2]; [24]
  Tumor volume: 690 ± 208 mm^3
  tumor growth inhibition (TGI): 10%
[2]; [25]
  Tumor volume: 894 ± 99 mm^3
  tumor growth inhibition (TGI): 16%
[2]; [27]
  Tumor volume: 817 ± 234 mm^3
  tumor growth inhibition (TGI): 23%
[2]; [28]
  Tumor volume: 882 ± 238 mm^3
  tumor growth inhibition (TGI): 17%
[2]; [29]
  Average life time: 21 ± 4 days
  ILT (increase of the animal life time): 0%
  Metastasis MF (tumor metastasis frequency): 80%
  Metastasis MI (metastasis inhibition rate): 29%
[2]; [30]
  Average life time: 27 ± 4 days
  ILT (increase of the animal life time): 29%
  Metastasis MF (tumor metastasis frequency): 40%
  Metastasis MI (metastasis inhibition rate): 81%
[2]; example 2
  efficiency for individual use (without chemotherapy): did not reach a biologically significant level
[2]; [32]
  Average life time: 18 ± 3 days
  ILT (increase of the animal life time): 0%
  Metastasis MF (tumor metastasis frequency): 100%
  Metastasis MI (metastasis inhibition rate): 5%
[2]; [33]
  Average life time: 24 ± 4 days
  ILT (increase of the animal life time): 14%
  Metastasis MF (tumor metastasis frequency): 100%
  Metastasis MI (metastasis inhibition rate): 8%
[3]
  Toxic action (acute, chronic and specific toxicity): no toxic action

Reference: patent US20170290882A1, “Specific Combined Therapy of Malignant Tumors with a Cytostatic and Its Modifier” (priority 2015, published 2017)
